Measured values reported in US11639350B2, “Heteroaryldihydropyrimidine derivatives and methods of treating hepatitis B infections” (Janssen Pharmaceutica NV, priority 2018, dated 2023).

Tests used:
HBV = HBV inhibitory activity: HBV DNA in the culture medium of HepG2.2.15 cells by q-PCR; type: cell-based; details: HepG2.2.15 cells, 6 days of compound treatment, HBV DNA in culture medium by q-PCR, highest concentration 10 μM; read-out: EC50
In short: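 Supernatant HBV DNA quantified by q-PCR after a 6-day compound exposure, with one mid-course medium change, of HepG2.2.15 cells (stably integrated HBV; 40,000 per well, 2% FBS). Eight-point 3-fold series topped at 10 μM for antiviral EC50; separate plates of 5,000 cells per well with 100 μM top give CC50.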

HepG2.2.15 cells = test: Cytotoxicity determination in HepG2.2.15 cells (CCK-8); type: cell-based; details: 6 days of compound treatment, CCK-8, highest concentration 100 μM
In short: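 CC50 is from CCK-8 absorbance (450 nm, 630 nm reference) after 2.5 h with reagent. Before that, compounds were applied for six days, top concentration 100 μM, eight threefold dilutions, one mid-course medium change, to stably HBV-integrated HepG2.2.15 cells plated at 5,000/well in 2% FBS.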

Structure (SMILES)	EC50 (HBV)	CC50 (HepG2.2.15 cells)
COC(=O)C1=C(C2CCN(S(=O)(=O)C3CC(C)(C(=O)O)C3)CC2)NC(c2nccs2)=NC1c1ccc(F)cc1C (stereo not drawn) [Compound 447C, (trans)-3-((4-(6-(4-Fluoro-2-methylphenyl)-5-(methoxycarbonyl)-2-(thiazol-2-yl)-3,6-dihydropyrimidin-4-yl)piperidin-1-yl)sulfonyl)-1-methylcyclobutanecarboxylic Acid]	0.08 µM	48.2 µM
COC(=O)C1=C(C2CCCN(S(C)(=O)=O)C2)NC(c2nccs2)=NC1c1ccc(F)cc1Cl (single isomer, unassigned) [Compound 33C, Methyl 4-(2-chloro-4-fluorophenyl)-6-(1-(methylsulfonyl)piperidin-3-yl)-2-(thiazol-2-yl)-1,4-dihydropyrimidine-5-carboxylate]	0.484 µM	37.7 µM
COC(=O)C1=C(C2CCCN(S(C)(=O)=O)C2)NC(c2nccs2)=NC1c1ccc(F)cc1Cl (single isomer, unassigned) [Compound 33A, Methyl 4-(2-chloro-4-fluorophenyl)-6-(1-(methylsulfonyl)piperidin-3-yl)-2-(thiazol-2-yl)-1,4-dihydropyrimidine-5-carboxylate]	0.19 µM	78.1 µM
COC(=O)C1=C(C2CCC(NC(C)=O)C2)NC(c2nccs2)=NC1c1cccc(F)c1Cl (single isomer, unassigned) [Compound 62G, Methyl 6-(3-acetamidocyclopentyl)-4-(2-chloro-3-fluorophenyl)-2-(thiazol-2-yl)-1,4-dihydropyrimidine-5-carboxylate]	0.119 µM	37.1 µM
CCOC(=O)C1=C(C2CCN(S(=O)(=O)C3CC(CC(=O)O)C3)CC2)NC(c2nccs2)=NC1c1ccc(F)c(F)c1Cl (stereo not shown) [Compound 482B, 2-(3-((4-(6-(2-Chloro-3,4-difluorophenyl)-5-(ethoxycarbonyl)-2-(thiazol-2-yl)-3,6-dihydropyrimidin-4-yl)piperidin-1-yl)sulfonyl)cyclobutyl)acetic Acid]	0.011 µM	11.3 µM
CCOC(=O)C1=C(C2CCN(S(=O)(=O)C3CC(C)(C(=O)O)C3)CC2)NC(c2nccs2)=NC1c1cccc(F)c1Br (single isomer, unassigned) [Compound 414C, (trans)-3-((4-(6-(2-Bromo-3-fluorophenyl)-5-(ethoxycarbonyl)-2-(thiazol-2-yl)-3,6-dihydropyrimidin-4-yl)piperidin-1-yl)sulfonyl)-1-methylcyclobutanecarboxylic Acid]	0.019 µM	17.3 µM
COC(=O)C1=C(C2CCN(S(=O)(=O)CC3(C)CCC(C(=O)O)CC3)CC2)NC(c2nccs2)=NC1c1ccc(F)cc1Cl (single isomer, unassigned) [Compound 450A, (cis)-4-(((4-(6-(2-Chloro-4-fluorophenyl)-5-(methoxycarbonyl)-2-(thiazol-2-yl)-3,6-dihydropyrimidin-4-yl)piperidin-1-yl)sulfonyl)methyl)-4-methylcyclohexanecarboxylic Acid]	0.017 µM	12.8 µM
COC(=O)C1=C(C2CCN(S(=O)(=O)[C@H]3C[C@](C)(C(=O)O)C3)CC2)NC(c2nccs2)=NC1c1cccc(F)c1Cl (stereo partly drawn) [Compound 274A, (trans)-3-((4-(−6-(2-Chloro-3-fluorophenyl)-5-(methoxycarbonyl)-2-(thiazol-2-yl)-3,6-dihydropyrimidin-4-yl)piperidin-1-yl)sulfonyl)-1-methylcyclobutanecarboxylic Acid]	0.042 µM	31.4 µM
